Reference: PubChem BioAssay AID330 (DTP/NCI, 2004)
Values joined by “and” are separate entries in the source; they are usually repeats but may differ in a detail not shown here. Equal values may be shown once. Inconclusive results and toxic doses are left out. How the source made its calls: active means survival T/C of 150% or more; inactive means T/C below 125% in these data.

Test system: P388 leukemia ip, CD2F1 mice, survival T/C
Assay: NCI In Vivo Anticancer Drug Screen. Data for tumor model P388 Leukemia (intraperitoneal) in CD2F1 (CDF1) mice
Settings: endpoint: median survival time, higher = longer survival
In short: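 Mice carrying the transplanted tumor received test compound or vehicle. Survival was recorded in each group, and the value is the treated-group measurement divided by that of the vehicle-treated control group.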

[1] = dose: 2.0 mg/kg/injection, schedule: Q01DX009 (ip), vehicle: other
[2] = dose: 4.0 mg/kg/injection, schedule: Q01DX009 (ip), vehicle: other
[3] = dose: 8.0 mg/kg/injection, schedule: Q01DX009 (ip), vehicle: other
[4] = dose: 16.0 mg/kg/injection, schedule: Q01DX009 (ip), vehicle: other
[5] = dose: 25.0 mg/kg/injection, schedule: Q04DX002 (ip), vehicle: saline with Tween-80
[6] = dose: 50.0 mg/kg/injection, schedule: Q04DX002 (ip), vehicle: saline with Tween-80
[7] = dose: 50.0 mg/kg/injection, schedule: Q01DX005 (ip), vehicle: Klucel (hydroxypropylcellulose) (HPC)
[8] = dose: 100.0 mg/kg/injection, schedule: Q01DX005 (ip), vehicle: Klucel (hydroxypropylcellulose) (HPC)
[9] = dose: 200.0 mg/kg/injection, schedule: Q01DX005 (ip), vehicle: Klucel (hydroxypropylcellulose) (HPC)
[10] = dose: 200.0 mg/kg/injection, schedule: Q01DX009 (ip), vehicle: saline with Tween-80
[11] = dose: 50.0 mg/kg/injection, schedule: Q01DX009 (ip), vehicle: saline with Tween-80
[12] = dose: 100.0 mg/kg/injection, schedule: Q01DX009 (ip), vehicle: saline with Tween-80
[13] = dose: 50.0 mg/kg/injection, schedule: Q01DX009 (ip), vehicle: saline
[14] = dose: 100.0 mg/kg/injection, schedule: Q01DX009 (ip), vehicle: saline
[15] = dose: 200.0 mg/kg/injection, schedule: Q01DX009 (ip), vehicle: saline
[16] = dose: 60.0 mg/kg/injection, schedule: Q01DX005 (ip), vehicle: saline with Tween-80
[17] = dose: 120.0 mg/kg/injection, schedule: Q01DX005 (ip), vehicle: saline with Tween-80
[18] = dose: 240.0 mg/kg/injection, schedule: Q01DX005 (ip), vehicle: saline with Tween-80
[19] = dose: 6.25 mg/kg/injection, schedule: Q01DX009 (ip), vehicle: saline
[20] = dose: 12.5 mg/kg/injection, schedule: Q01DX009 (ip), vehicle: saline
[21] = dose: 25.0 mg/kg/injection, schedule: Q01DX009 (ip), vehicle: saline
[22] = dose: 100.0 mg/kg/injection, schedule: Q01DX001 (ip), vehicle: saline with Tween-80
[23] = dose: 200.0 mg/kg/injection, schedule: Q01DX001 (ip), vehicle: saline with Tween-80
[24] = dose: 400.0 mg/kg/injection, schedule: Q01DX001 (ip), vehicle: saline with Tween-80
[25] = dose: 25.0 mg/kg/injection, schedule: Q01DX005 (ip), vehicle: saline
[26] = dose: 50.0 mg/kg/injection, schedule: Q01DX001 (ip), vehicle: saline with Tween-80

Measured: T/C

CN(C)C1C(O)C2Oc3c(cc(O)c4c3C(=O)c3cc5c(c(O)c3C4=O)C(OCC3COC(C)(C)O3)CC(C)(O)C5)C(C)(O2)C1O (stereo unspecified)
inactive: [1] 105 % of control | [2] 117 % of control | [3] 123 % of control | [4] 123 % of control

C/C(=N\N=C(/N)N1CCCC1)c1ccc2c(c1)Cc1cc(/C(C)=N/N=C(\N)N3CCCC3)ccc1-2
inactive: [5] 98 % of control | [6] 98 % of control

COC(=O)C1C(NCc2ccccc2)=CC(C)(C)C(C(=O)OC)C1c1ccccc1 (stereo unspecified)
inactive: [7] 103 % of control | [8] 100 % of control | [9] 97 % of control

C(=NCCN=Cc1ccccc1)c1ccccc1
inactive: [10] 95 % of control | dose: 400.0 mg/kg/injection, schedule: Q01DX009 (ip), vehicle: saline with Tween-80 87 % of control

COc1ccc(N=C(N=C(NC(=O)c2ccccc2)c2ccccc2)c2ccccc2)cc1
inactive: [11] 104 % of control and 95 % of control | [12] 103 % of control and 92 % of control | [10] 100 % of control

CCOP(=O)(Nc1ccccc1OC)OCC
inactive: [13] 104 % of control | dose: 100.0 mg/kg/injection, schedule: Q01DX001 (ip), vehicle: saline 110 % of control | [14] 107 % of control | dose: 200.0 mg/kg/injection, schedule: Q01DX001 (ip), vehicle: saline 105 % of control | [15] 100 % of control | dose: 400.0 mg/kg/injection, schedule: Q01DX001 (ip), vehicle: saline 102 % of control

CN(C)c1ccc(-c2nc3ccccc3s2)c(Cl)c1
inactive: [11] 102 % of control | [12] 103 % of control | [10] 109 % of control

Clc1ccc(C(CCOc2ccccc2Br)Cn2ccnc2)c(Cl)c1 (stereo unspecified)
inactive: dose: 12.5 mg/kg/injection, schedule: Q01DX009 (ip), vehicle: saline with Tween-80 89 % of control | dose: 25.0 mg/kg/injection, schedule: Q01DX009 (ip), vehicle: saline with Tween-80 90 % of control | [11] 101 % of control and 94 % of control

Cc1cc2[nH]c3c(C#N)c(O)c(C(C)C)c(=O)n3c2cc1C
inactive: [16] 103 % of control | [17] 100 % of control | [18] 94 % of control

Cc1cc(Cl)nc2c1ccn2C1OCC(O)C(O)C1O (stereo unspecified)
inactive: dose: 16.0 mg/kg/injection, schedule: Q01DX001 (ip), vehicle: saline with Tween-80 102 % of control and 107 % of control | dose: 32.0 mg/kg/injection, schedule: Q01DX001 (ip), vehicle: saline with Tween-80 98 % of control and 107 % of control | dose: 64.0 mg/kg/injection, schedule: Q01DX001 (ip), vehicle: saline with Tween-80 107 % of control

COC(=O)C1(C(=O)OC)N=C(C)OO1
inactive: [19] 99 % of control and 97 % of control | [20] 101 % of control and 107 % of control | [21] 91 % of control and 97 % of control | [13] 96 % of control and 97 % of control | [14] 101 % of control

COC(=O)C1=C(C(=O)OC)N2c3ccccc3-n3c(-c4ccccc4)cc(OC)c3C2(C)C(C(=O)OC)=C1C(=O)OC (stereo unspecified)
inactive: [22] 99 % of control | [23] 99 % of control | [24] 92 % of control

CCC(c1ccc(O)cc1)C(CC)c1ccc(OCC(N)=O)cc1 (stereo unspecified)
inactive: [16] 92 % of control | [17] 94 % of control | [18] 94 % of control

O=C(O)C(=O)O
inactive: dose: 12.5 mg/kg/injection, schedule: Q01DX005 (ip), vehicle: saline 98 % of control | [25] 97 % of control | dose: 50.0 mg/kg/injection, schedule: Q01DX005 (ip), vehicle: saline with Tween-80 92 % of control

C[C](C)(C)[Sn](=[O])[C](C)(C)C
inactive: [19] 95 % of control | [20] 97 % of control | [21] 99 % of control

Cc1cc(C)n(C2=NS(=O)(=O)c3ccccc3N2C)n1
inactive: [16] 93 % of control | [17] 101 % of control | [18] 99 % of control

CC(=O)Nc1ccccc1NOC(=O)c1ccccc1NC(C)=O
inactive: [7] 91 % of control | [8] 87 % of control | [9] 91 % of control

CCCCN1COC2CCCCC21 (stereo unspecified)
inactive: [25] 113 % of control | dose: 100.0 mg/kg/injection, schedule: Q01DX005 (ip), vehicle: saline 121 % of control

CCC(CN)C1=Nc2ccccc2C1 (stereo unspecified)
inactive: dose: 25.0 mg/kg/injection, schedule: Q04DX003 (ip), vehicle: saline 101 % of control | dose: 50.0 mg/kg/injection, schedule: Q04DX003 (ip), vehicle: saline 96 % of control | dose: 100.0 mg/kg/injection, schedule: Q04DX003 (ip), vehicle: saline 103 % of control and 111 % of control

CC(=O)CC(C)=O.CC(=O)CC(C)=O.CCCn1ccnc1.O=N[O-].[Co]
inactive: [26] 95 % of control | [22] 101 % of control and 93 % of control | [23] 99 % of control and 120 % of control | [24] 108 % of control

C=CC(=O)NCCCCCC(=O)O
inactive: [13] 103 % of control | [14] 98 % of control | [15] 103 % of control

COC(=O)C1CP2(C)(C)N(C)C(=O)N2C1(c1ccccc1)c1ccccc1 (stereo unspecified)
inactive: [7] 102 % of control | [8] 102 % of control | [9] 112 % of control

CC(C)=CCCC1(C)OC2(C)CCC1CC2 (stereo unspecified)
inactive: dose: 0.75 mg/kg/injection, schedule: Q01DX005 (ip), vehicle: Klucel (hydroxypropylcellulose) (HPC) 95 % of control | dose: 1.5 mg/kg/injection, schedule: Q01DX005 (ip), vehicle: Klucel (hydroxypropylcellulose) (HPC) 95 % of control | dose: 3.0 mg/kg/injection, schedule: Q01DX005 (ip), vehicle: Klucel (hydroxypropylcellulose) (HPC) 99 % of control | dose: 6.0 mg/kg/injection, schedule: Q01DX005 (ip), vehicle: Klucel (hydroxypropylcellulose) (HPC) 96 % of control

CN(CCN1C(=O)c2c(Cl)c(Cl)c(Cl)c(Cl)c2C1=O)c1ccccc1
inactive: [26] 95 % of control | [22] 91 % of control | [23] 88 % of control

C=CCC(C(=O)OCCN(CC)CC)(c1ccccc1)c1ccccc1
inactive: dose: 0.75 mg/kg/injection, schedule: Q01DX009 (ip), vehicle: saline 100 % of control | dose: 1.5 mg/kg/injection, schedule: Q01DX009 (ip), vehicle: saline 94 % of control | dose: 3.0 mg/kg/injection, schedule: Q01DX009 (ip), vehicle: saline 100 % of control | dose: 6.0 mg/kg/injection, schedule: Q01DX009 (ip), vehicle: saline 103 % of control | dose: 12.0 mg/kg/injection, schedule: Q01DX009 (ip), vehicle: saline 100 % of control

NC(=S)c1ccc(C2Nc3ccccc3N2)cc1
inactive: [5] 95 % of control | [6] 92 % of control | dose: 100.0 mg/kg/injection, schedule: Q04DX002 (ip), vehicle: saline with Tween-80 87 % of control and 91 % of control

COc1ccc(/C=N/Nc2nnc3c4cccnc4c4ccccc4c3n2)cc1OC
inactive: dose: 3.12 mg/kg/injection, schedule: Q01DX001 (ip), vehicle: saline with Tween-80 102 % of control and 87 % of control | dose: 6.25 mg/kg/injection, schedule: Q01DX001 (ip), vehicle: saline with Tween-80 100 % of control and 87 % of control | [26] 104 % of control and 112 % of control | [22] 100 % of control and 111 % of control | [23] 106 % of control and 114 % of control | [24] 107 % of control

CC(C)CCCCCCCCCCCCC(=O)NCC(=O)NC1C(O)C(O)C(Nc2ncnc3nc[nH]c23)C(O)C1O (stereo unspecified)
inactive: dose: 0.5 mg/kg/injection, schedule: Q01DX009 (ip), vehicle: other 105 % of control | dose: 1.0 mg/kg/injection, schedule: Q01DX009 (ip), vehicle: other 101 % of control | [1] 91 % of control | [2] 91 % of control | [3] 101 % of control | [4] 95 % of control | dose: 32.0 mg/kg/injection, schedule: Q01DX009 (ip), vehicle: other 90 % of control

O=S(=O)(SC(S(=O)(=O)C12CC3CC(CC(C3)C1)C2)S(=O)(=O)C12CC3CC(CC(C3)C1)C2)C12CC3CC(CC(C3)C1)C2 (stereo unspecified)
inactive: [11] 95 % of control | [12] 105 % of control | [10] 95 % of control
